Source: publication PMC3492287, “Lysosomotropic Properties of Weakly Basic Anticancer Agents Promote Cancer Cell Selectivity In Vitro” (PLoS ONE, 2012)
“Also recorded” adds a separate entry of the source. Where two headings read alike, the source gives them in different places.

What was measured:
[1] = test system: MDA-MB-231 cells with low (scrambled shRNA) vs elevated (V1E1 shRNA) lysosomal pH; test: intracellular distribution-based (IDB) selectivity from antiproliferative WST-1 IC50 values; type: cell-based, human
Description: We subsequently evaluated the IC50 of the Hsp90 inhibitors in both cell types (Figure S4) and calculated selectivity as IC50 in MDA-MB-231 cells with low lysosomal pH divided by IC50 in MDA-MB-231 cells with elevated lysosomal pH.
MDA-MB-231 cells with elevated lysosomal pH were generated by lentiviral vector-mediated knockdown of the V-ATPase V1E1 subunit (ATP6V1E1). The lentiviral transfer vector pPGK-Neo-ATP6V1E1 encoding the target sequence 5′-[…]-3′ against the V-ATPase V1E1 subunit was obtained from Mission (Sigma, St. Louis, MO). […] After the cells adhered, 2.6 µg of vector DNA was combined with 26 µL of the lentiviral packaging mix and transfected into cells using Fugene-6 transfection reagent (Roche Diagnostics, Indianapolis, IN), according to the manufacturer's instructions. […] The virus-containing cell culture supernatants were harvested twice: once at 24 h and again at 48 h. Prior to use, the viral media was filtered through a 0.45-µm filter and added onto 70% confluent 75 cc flasks of MDA-MB-231 cells, in the presence of 8 µg/mL hexadimethrine bromide. The viruses were allowed to infect the cells for 16–18 h, after which the media containing viruses was replaced with fresh media for a further 24 h prior to analysis of knockdown of V1E1 expression. The knockdown efficiency was analyzed by Western blotting, performed as described previously. […] Anti-goat HRP-conjugated secondary antibody (Santa Cruz Biotechnology) was used at a 1∶5000 dilution, and anti-mouse HRP-conjugated secondary antibody was used at a 1∶1000 dilution.
Cell sensitivity to compounds was evaluated using the WST-1 (4-[3[(4-iodophenyl)-2-(4-nitrophenyl)-2H-5-tetrazolio]-1,3-benzene disulfonate) assay (BioAssay Systems, Hayward, CA), which was performed according to the manufacturer's instructions. Briefly, 4000 cells were seeded per well of a 96-well plate and allowed to adhere overnight. Cells were incubated in increasing concentrations (9 different concentrations ranging from 0.00001 µM to 1000 µM) of drug for a period of 72 h. At the end of the drug treatment period, 10 µL of WST-1 reagent was added per well, allowed to incubate at 37°C for 2 hours, and absorbance at 450 and 620 nm (reference) was measured using a Multiskan model MCC/340 microplate reader (ThermoElectron Corp, Hudson, NH). Cell viability as a percent of control (untreated) cells was plotted against drug concentration to generate cytotoxicity curves, which were fit to 3 or 4 parameter logistic Hill plots using SigmaPlot. IC50 values were determined from the curve fit.

[2] = set-up: method as in PMID 17163760; settings: previously measured; cited from earlier work
[3] = pKa determination by 1H NMR pH titration; type: physicochemical
Procedure: The pKa values for analogs 1, 2, 3, 5 and 6 (see Figure 2 for chemical structures) were measured at 37°C using ^1H NMR. To determine the pKa using this method, the chemical shifts of protons alpha to the ionizable amine were plotted against pH, yielding sigmoidal curves (Figure S1) from which pKa was derived. […] Therefore, we report a previously measured pKa value for compound 4 that was procured using an alternative approach, and we report a calculated value for compound 7 (see Materials and Methods). […] Only the higher pKa value is reported in Figure 2 because the second is too low to theoretically contribute to ion trapping in lysosomes.
All NMR solvents and reagents were obtained from Cambridge Isotope Labs (Andover, MA), unless noted otherwise. Compounds were dissolved at a 2–3 mg/mL concentration in D2O. pD measurements in D2O were performed using a MiniLab model IQ125 pH electrode (Fisher Scientific, Pittsburg, PA). pD was adjusted using NaOD (40% in D2O) or DCl (20% in D2O). ^1H NMR spectra were recorded at 37°C using a Bruker 400 MHz NMR and analyzed using the Bruker Topspin software. […] (DSS) was used as the reference peak. pD was converted to pH using the following expression: pH = 0.936pD*+0.412 [45]. The change in chemical shift of protons alpha to the amine as a function of pH yielded sigmoidal plots that were fit to a 4-parameter logistic equation using SigmaPlot (Systat Software, San Jose, CA) from which pKa was determined. The calculated pKa for compound 7 was determined using the MarvinSketch version 5.3.8. pKa plugin (www.chemaxon.com).

[4] = cited from earlier work
[5] = 1H NMR in D2O, 37°C, n = 1, for compound 5 the higher pKa, read-out: pKa

For `O=c1[nH]cc(F)c(=O)[nH]1` [5-fluorouracil], the “IDB selectivity (IC50 low lysosomal pH / IC50 elevated lysosomal pH MDA-MB-231)” value [1] was ~1 and the “IDB selectivity (IC50 low lysosomal pH / IC50 elevated lysosomal pH MDA-MB-231)” value ([1]; 72 h, WST-1, n = 3) was “one and did not show appreciable IDB selectivity”.

For `CO[C@H]1/C=C\C=C(/C)C(=O)NC2=CC(=O)C(NCCN(C)C)=C(C[C@@H](C)C[C@H](OC)[C@H](O)[C@@H](C)/C=C(\C)[C@@H]1OC(N)=O)C2=O` [17-DMAG], the alpha value [2] is given as 0.01.

In the case of `COC1C=CC=C(C)C(=O)NC2=CC(=O)C(NCCc3cccnc3)=C(CC(C)CC(OC)C(O)C(C)C=C(C)C1OC(N)=O)C2=O` (centres unmarked) [Compound 1], the pKa [3, 5] is reported as 5.8.

`COC1C=CC=C(C)C(=O)NC2=CC(=O)C(NCCN(C)C)=C(CC(C)CC(OC)C(O)C(C)C=C(C)C1OC(N)=O)C2=O` (centres unmarked) [Compound 3] gave a pKa [3] of 7.8.

Compound `COC1C=CC=C(C)C(=O)NC2=CC(=O)C(NCCN3CCNCC3)=C(CC(C)CC(OC)C(O)C(C)C=C(C)C1OC(N)=O)C2=O` (centres unmarked) [Compound 5] has a pKa [3, 5] of 9.9 and a pKa ([3]; 1H NMR, 37°C, too low to contribute to ion trapping, read-out: pKa (second, lower value)) of 4.2.

Compound `COC1C=CC=C(C)C(=O)NC2=CC(=O)C(NCCC3CCNCC3)=C(CC(C)CC(OC)C(O)C(C)C=C(C)C1OC(N)=O)C2=O` (centres unmarked) [Compound 6] has a pKa [3, 5] of 10.5.

For `COc1cccc2c1C(=O)c1c(O)c3c(c(O)c1C2=O)C[C@@](O)(C(C)=O)C[C@@H]3O[C@H]1C[C@H](N)[C@H](O)[C@H](C)O1` [daunorubicin], the “IDB selectivity (IC50 low lysosomal pH / IC50 elevated lysosomal pH MDA-MB-231)” value [1] was “significant but different degrees of IDB selectivity; also recorded: significantly higher IDB selectivity than did mitoxantrone”.

In the case of `O=C1c2c(O)ccc(O)c2C(=O)c2c(NCCNCCO)ccc(NCCNCCO)c21` [mitoxantrone], the “IDB selectivity (IC50 low lysosomal pH / IC50 elevated lysosomal pH MDA-MB-231)” value ([1]; 72 h, WST-1, n = 3) is given as “significant but different degrees of IDB selectivity”, the “IDB selectivity (IC50 low lysosomal pH / IC50 elevated lysosomal pH MDA-MB-231)” value ([1]; 72 h, WST-1, n = 3, listed as Mitoxantrone) is given as “significant IDB selectivity” and the “pKa” value ([4]; in Figure 6) is given as 6. For the same compound, the pKa ([4]; weakly basic) was 8.1 and the pKa ([4]; weakly basic, listed as Mitoxantrone) was ~8.
